Measurements reported in patent US10772931B2, “Collagen binding synthetic peptidoglycans for treatment of endothelial dysfunction” (Purdue Research Foundation, priority 2014, dated 2020).

Assays:
interleukin-6 (IL-6) [1] = experiment: IL-6 production, hyperplastic co-cultures; assay type: cell-based, human; conditions: 10 ng/mL PDGF alone
Description: (§1) To better mimic the physiology of the vessel wall and further investigate the effects of therapeutics on ECs in a biologically relevant manner, two EC-SMC co-culture models, designed to mimic either healthy or diseased vasculature, were established. ECs were cultured as stated previously. Human coronary artery smooth muscle cells (SMC, Invitrogen) were cultured in Media 231 (M231, Invitrogen), supplemented with (all from Invitrogen) 4.9% FBS, 2 ng/mL FGF, […], 5 ng/mL heparin, 5 μg/mL insulin, and 0.2 μg/mL bovine serum albumin. SMCs were seeded at 5×10^4 cells/cm^2 in Ibidi angiogenesis μ-slide and allowed to proliferate for 24 hrs to allow the formation of multilayered cell constructs. Media was removed and cultures were treated either with proliferative media, as described above, or contractile media to induce a quiescent phenotype, for 24 hrs. […]
(§2) Cells were incubated in the presence of DS-SILY20 with or without 10 ng/mL PDGF for 24 hrs. […] After washing three times with PBS with 0.05% Tween-20, 2× read buffer was added to the plate and imaged using a Sector Imager 2400A (Meso Scale Discovery). […] Data were analyzed using the MSD Discovery Workbench Software.

PDGF receptor β (PDGFRβ) = experiment: PDGFRβ phosphorylation in ECs (sandwich ELISA); assay type: cell-based, human; conditions: EC monolayers, PDGF treatment alone (10 ng/mL)
Description: Cells were incubated in the presence of DS-SILY20 with and without 10 ng/mL PDGF for 60 mins prior to washing with ice cold TBS and […] solubilized in lysis buffer (1% NP-40 Alternative, 20 mM Tris, 137 mM NaCl, 10% glycerol, 2 mM EDTA, 1 mM activated sodium orthovanadate, 10 μg/mL Aprotinin, and 10 μg/mL Leupeptin). Lysates were processed at 4° C. for 30 mins prior to centrifugation for 5 mins at 2000×g to remove membrane components. Sandwich ELISAs (all from R&D systems) were utilized to measure total PDGF receptor β (PDGFRβ) and total phosphotyrosine PDGFRβ. All assays were performed following the manufacturer's protocol.

interleukin-6 (IL-6) [2] = experiment: IL-6 expression in EC monolayers (Pro-Inflammatory I kit); assay type: cell-based, human; conditions: 10 ng/mL PDGF alone, 24 hrs
Description: (§3) Human aortic endothelial cells (EC, Invitrogen) were cultured in Media 200 (M200, Invitrogen), supplemented with (all from Invitrogen) 2% fetal bovine serum (FBS), 1 μg/mL hydrocortisone, 10 ng/mL epidermal growth factor (EGF), 3 ng/mL basic fibroblast growth factor (FGF), and 10 μg/mL heparin. Unless otherwise noted, cells were initially seeded at 3×10^5 cells/cm^2 in Ibidi angiogenesis μ-slide (Ibidi) and allowed to proliferate for 24 hrs to establish a confluent monolayer, prior to the application of treatments to the EC cultures. Cells were used between passage numbers 3 and 8 for all assays and maintained at 37° C. with 5% CO2.
Cells were incubated in the presence of DS-SILY20 with or without 10 ng/mL PDGF for 24 hrs. Media was removed from the cultures and a Pro-Inflammatory I kit (Meso Scale Discovery) was used to analyze cytokine production from EC monolayers, hyperplastic co-cultures, and quiescent co-cultures according to manufacturer's instructions. Briefly, plates were warmed to room temperature and incubated with 25 μL of samples and standards for 2 hrs at room temperature with vigorous shaking. […] After washing three times with PBS with 0.05% Tween-20, 2× read buffer was added to the plate and imaged using a Sector Imager 2400A (Meso Scale Discovery). […] Data were analyzed using the MSD Discovery Workbench Software.

E-selectin [3] = experiment: E-selectin production in EC monolayers (Vascular Injury Marker I kit); assay type: cell-based, human; conditions: 10 ng/mL PDGF alone
Description: as §3
(§4) Following treatment with DS-SILY20 with or without 10 ng/mL PDGF for 24 hrs, cells were washed twice with ice cold PBS and solubilized in lysis buffer (9 M urea, 4% CHAPS, and phosphatase inhibitor cocktail-1 in Millipore water). Lysates were processed at 4° C. for 30 mins prior to centrifugation for 20 mins at 18,000×g to remove membrane components. A BCA assay protein kit (Pierce) was used to quantify total protein. […] After washing three times with PBS with 0.05% Tween-20, 2× Read buffer was added to the plate and imaged using a Sector Imager 2400A. Data were analyzed using the MSD Discovery Workbench Software.

interferon-γ (IFN-γ) [4] = experiment: IFN-γ production, hyperplastic co-cultures; assay type: cell-based, human; conditions: 10 ng/mL PDGF alone
Description: as §1, §2

[5] = tested on: Human aortic endothelial cells (EC); experiment: Metabolic activity (CellTiter 96 AQueous One, MTS), EC monolayers; assay type: cell-based; conditions: 10 ng/mL PDGF alone, 24 hrs
Description: as §3
Cultures were incubated in the presence of 0, 0.01, 0.1, 1, or 10 μM DS-SILY20, with and without 10 ng/mL PDGF, for 24 hrs. The metabolic activity of the cells was determined using the CellTiter 96 AQueous One Solution Cell Proliferation Assay (Promega). Briefly, media was mixed with 3-(4,5-dimethylthiazol-2-yl)-5-(3-carboxymethoxyphenyl)-2-(4-sulfophenyl)-2H-tetrazolium, inner salt (MTS) and cultures were re-incubated for 2 hrs at 37° C. with 5% CO2. The media containing MTS was then transferred into a 96-well plate and absorbance at 490 nm was measured.

P-selectin [6] = experiment: P-selectin production in EC monolayers (Vascular Injury Marker I kit); assay type: cell-based, human; conditions: PDGF alone
Description: as §3, §4

thrombomodulin [7] = experiment: Thrombomodulin production, hyperplastic co-cultures; assay type: cell-based, human; conditions: PDGF alone
Description: as §1
as §4, with “Lysates were processed at 4° C. for 30 mins prior to centrifugation for 20 mins at 18,000×g to remove membrane components.” left out

P-selectin [8] = experiment: P-selectin production, hyperplastic co-cultures; assay type: cell-based, human; conditions: PDGF alone
Description: as §1
as §4, with “Lysates were processed at 4° C. for 30 mins prior to centrifugation for 20 mins at 18,000×g to remove membrane components.” left out

interferon-γ (IFN-γ) [9] = experiment: IFN-γ production, quiescent co-cultures; assay type: cell-based, human; conditions: 10 ng/mL PDGF alone
Description: as §1, §2

[10] = tested on: hyperplastic EC-SMC co-cultures; experiment: Metabolic activity (MTS), hyperplastic EC-SMC co-cultures; assay type: cell-based, human; conditions: PDGF stimulation alone
Description: as §1
(§5) Cultures were incubated in the presence of 0, 0.01, 0.1, 1, or 10 μM DS-SILY20, with and without 10 ng/mL PDGF, for 24 hrs. The metabolic activity of the cells was determined using the CellTiter 96 AQueous One Solution Cell Proliferation Assay (Promega). […] The media containing MTS was then transferred into a 96-well plate and absorbance at 490 nm was measured.

thrombomodulin [11] = experiment: Thrombomodulin production in EC monolayers (Vascular Injury Marker I kit); assay type: cell-based, human; conditions: PDGF alone
Description: as §3, §4

[12] = tested on: Human aortic endothelial cells (EC); experiment: EC migration on collagen (Oris Cell Migration Kit); assay type: cell-based; conditions: PDGF stimulation alone (10 ng/mL), 48 hrs
Description: Fibrillar collagen was coated in wells of 96-well Oris Cell Migration Kit (Platypus Technologies, Madison). Stoppers were inserted into the plate to block an inner circular portion of the well. ECs were seeded at 5×10^3 cells/well and grown to confluence in the outer portion of the well. After 48 hrs, the stoppers in the wells were removed and ECs were stained with cell tracker green (Invitrogen). To determine the effects of treatments on migration alone, ECs were dosed with 25 μg/mL mitomycin C (Sigma) for 30 mins to inhibit proliferation. Various DS-SILY20 concentrations, solubilized in M200+LSGS, were then incubated on the exposed collagen surface in the inner portion of the well for 15 min at 37° C. Unbound DS-SILY20 was rinsed from the surface and cell media, with or without 10 ng/mL PDGF, was returned to the wells. ECs were allowed to migrate from the outer to the inner portion of the wells for 48 hrs. At 48 hrs, fluorescence measurements of the center of each well were measured using a mask provided with the migration kit such that only the treated inner circular portion of the well was measured.

[13] = tested on: tumor necrosis factor-α (TNF-α); experiment: TNF-α production, hyperplastic co-cultures; assay type: cell-based, human; conditions: 10 ng/mL PDGF alone
Description: as §1, §2

[14] = tested on: Human aortic endothelial cells (EC); experiment: EC proliferation (Hoescht 33342 nuclei stain); assay type: cell-based; conditions: PDGF alone (10 ng/mL), 24 hrs
Description: as §3
Cultures were incubated in the presence of DS-SILY20 with or without 10 ng/mL PDGF for 24 hrs. Cells were nuclei stained with Hoescht 33342 and […] to determine the effect of DS-SILY20 and PDGF on cell proliferation.

p38 MAPK (p38) = experiment: p38 MAPK phosphorylation in EC monolayers; assay type: cell-based, human; conditions: PDGF alone
Description: (§6) The phosphorylation of mitogen-activated protein kinases (MAPK), including extracellular signal-related kinase (ERK) and p38 MAPK (p38), was examined. Cells were incubated in the presence of DS-SILY20 with or without 10 ng/mL PDGF for […] prior to washing with ice cold tris buffered saline (TBS) and solubilized in lysis buffer (150 mM NaCl, 20 mM Tris, 1 mM EDTA, 1 mM EGTA, 1% Triton-X-100, plus protease inhibitors and phosphatase inhibitors). Lysates were processed at 4° C. for 30 mins prior to centrifugation for 20 mins at 18,000×g to remove membrane components. Phospho-p38 (Thr180/Tyr182) and phospho-ERK-1/2 (Thr/Tyr: 202/204; 185/187) levels were evaluated using the MAP Kinase Whole Cell Lysate kit (Meso Scale Discovery); Total p38 and total ERK-1/2 were determined via MAP Kinase (Total Protein) Whole Cell Lysate Kit (Meso Scale Discovery), according to manufacturer's instructions. Briefly, plates were warmed to room temperature and incubated with 25 μL of samples for 3 hrs at room temperature with vigorous shaking. Following gentle rinsing of the wells, the detection antibody was then added and incubated for 1 hr at room temperature with vigorous shaking. After washing three times with TBS, 2× read buffer was added to the plate and imaged using a Sector Imager 2400A. Data were analyzed using the MSD Discovery Workbench Software. […]

thrombomodulin [15] = experiment: Thrombomodulin production, quiescent co-cultures; assay type: cell-based, human; conditions: PDGF alone
Description: as §1
as §4, with “Lysates were processed at 4° C. for 30 mins prior to centrifugation for 20 mins at 18,000×g to remove membrane components.” left out

ERK-1/2 = ERK-1/2 phosphorylation in EC monolayers; assay type: cell-based, human; conditions: 10 ng/mL PDGF alone, 10 mins
Description: as §6

[16] = tested on: tumor necrosis factor-α (TNF-α); experiment: TNF-α production, quiescent co-cultures; assay type: cell-based, human; conditions: 10 ng/mL PDGF alone
Description: as §1, §2

E-selectin [17] = experiment: E-selectin production, hyperplastic co-cultures; assay type: cell-based, human; conditions: PDGF alone
Description: as §1
as §4, with “Lysates were processed at 4° C. for 30 mins prior to centrifugation for 20 mins at 18,000×g to remove membrane components.” left out

P-selectin [18] = experiment: P-selectin production, quiescent co-cultures; assay type: cell-based, human; conditions: PDGF alone
Description: as §1
as §4, with “Lysates were processed at 4° C. for 30 mins prior to centrifugation for 20 mins at 18,000×g to remove membrane components.” left out

E-selectin [19] = experiment: E-selectin production, quiescent co-cultures; assay type: cell-based, human; conditions: PDGF alone
Description: as §1
as §4, with “Lysates were processed at 4° C. for 30 mins prior to centrifugation for 20 mins at 18,000×g to remove membrane components.” left out

[20] = tested on: quiescent EC-SMC co-cultures; experiment: Metabolic activity (MTS), quiescent EC-SMC co-cultures; assay type: cell-based, human; conditions: PDGF stimulation alone
Description: as §1, §5

In the case of platelet-derived growth factor [PDGF], the “production of IL-6 vs no treatment controls” value (interleukin-6 (IL-6) [1]) is reported as “significantly increased”, the phospho-PDGFRβ levels (PDGF receptor β (PDGFRβ)) is reported as “significantly increased” and the “IL-6 production vs no treatment controls” value (interleukin-6 (IL-6) [2]) is reported as “did not alter”. For the same substance, the “E-selectin production vs no treatment controls” value (E-selectin [3]) was “did not alter”, the “production of IFN-γ vs no treatment controls” value (interferon-γ (IFN-γ) [4]) was “significantly increased” and the “metabolic activity of ECs” value [5] was “did not influence”. The P-selectin expression (P-selectin [6]) was “induced”, the thrombomodulin production (thrombomodulin [7]) was “significantly increased” and the P-selectin production (P-selectin [8]) was “significantly increased”. For the same substance, the “production of IFN-γ vs no treatment controls” value (interferon-γ (IFN-γ) [9]) was “significantly increased”, the metabolic activity [10] was “not impacted” and the thrombomodulin expression (thrombomodulin [11]) was “induced”. For the same substance, the “enhancement of EC migration” value [12] was 40.3%, the “production of TNF-α vs no treatment controls” value [13] was “significantly increased” and the EC proliferation [14] was “significantly increased”. The “phosphorylation of p38” value (p38 MAPK (p38)) was “did not alter”, the thrombomodulin production (thrombomodulin [15]) was “significantly increased” and the “ERK-1/2 phosphorylation vs no treatment controls” value (ERK-1/2) was “increased”. The “production of TNF-α vs no treatment controls” value [16] was “significantly increased”, the E-selectin expression (E-selectin [17]) was “did not stimulate” and the P-selectin production (P-selectin [18]) was “significantly increased”. The E-selectin expression (E-selectin [19]) was “did not stimulate” and the metabolic activity [20] was “not impacted”.
